Experimental data as given in patent publication US7792665B2, “Method for designing a compound based on the three dimensional structure of phosphoinositide dependent protein kinase 1 (PDK1)” (Medical Research Council, priority 2002, dated 2010).
Where a chain is given by its changes, count along the chain named. Where a SMILES comes first, the peptide text is derived from it. [ ]: non-standard residue; d: D form. pT = C[C@@H](OP(=O)(O)O)[C@H](N)C(=O)O

Experiments:
PDK1[K76A] = biological target: T1, PDK1[K76A] (Homo sapiens, UniProt O15530, K76A); test: PDK1 catalytic activity towards T308tide, activation by peptides, PDK1[K76A]; format: biochemical; details: T308tide substrate
T1 construct: made in house; host or cells: human embryonic kidney 293 cells (pEBG2T vector)
T1 sequence (O15530 1-556 K76A): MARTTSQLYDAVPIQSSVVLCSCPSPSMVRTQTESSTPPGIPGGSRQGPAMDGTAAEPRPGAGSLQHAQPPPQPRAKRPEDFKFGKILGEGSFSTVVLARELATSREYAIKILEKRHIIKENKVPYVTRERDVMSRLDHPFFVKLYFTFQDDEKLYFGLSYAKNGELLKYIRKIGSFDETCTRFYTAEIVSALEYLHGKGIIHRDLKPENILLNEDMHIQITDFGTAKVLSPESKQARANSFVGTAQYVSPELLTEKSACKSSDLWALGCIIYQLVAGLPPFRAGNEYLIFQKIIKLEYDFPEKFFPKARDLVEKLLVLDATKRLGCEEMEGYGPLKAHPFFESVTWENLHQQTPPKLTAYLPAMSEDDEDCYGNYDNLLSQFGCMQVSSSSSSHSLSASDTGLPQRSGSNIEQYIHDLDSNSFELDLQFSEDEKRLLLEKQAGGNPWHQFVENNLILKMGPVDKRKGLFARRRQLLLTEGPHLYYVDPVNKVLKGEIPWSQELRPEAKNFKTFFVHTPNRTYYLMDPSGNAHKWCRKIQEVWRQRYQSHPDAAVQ
Protocol: C. Activation of the indicated forms of PDK1 by 56K-pHM and S6K-HM. PDK1 activity was measured using the peptide substrate (T308tide) in the presence of the indicated concentrations of 56K-pHM (closed circles) and S6K-HM (open circles) as described in the methods. Assays were performed in triplicate and similar results obtained in 2 separate experiments. The results are the average—SD for a single experiment.
The ability of wild type and mutant PDK1 to phosphorylate the synthetic peptide T308tide ([…] ([Biondi et al., 2000]) (SEQ ID NO:108) was carried out in 30 μl assays containing 100 ng of wild type or mutant PDK1, 50 mM Tris/HCl pH 7.5, 0.1% 13-mercaptoethanol, 10 mM MgCl2, 100 μM [32γ P]ATP (200 cpm/pmol), 0.5 μM microcystin-LR, 1 mM T308tide in the presence or absence of the indicated concentrations of the 56K-pHM peptide ([…](P)YVAPSV) (SEQ ID NO:104) or 56K-HM. peptide ([…]) (SEQ ID NO:105). After incubation for 10 min at 30° C., 25 μl of the resultant mixture was spotted into P81 phosphocellulose paper (2×2 cm) and the papers washed and analysed as described previously for assays of MAP kinase. Control assays were carried out in parallel in which either PDK1, or peptide substrate were omitted; these values were always less than 5% of the activity measured in the presence of these reagents. […]

PDK1[T148A] = biological target: T2, PDK1[T148A] (Homo sapiens, UniProt O15530, T148A); test: Surface plasmon resonance (BiaCore) binding, PDK1[T148A]; parameters: made in house; host or cells: human embryonic kidney 293 cells (pEBG2T vector)
T2 sequence (O15530 1-556 T148A): T1 sequence (O15530 1-556 K76A) with A76K, T148A
Protocol: Binding and activation of wild type and mutant forms of PDK1 to a phosphopeptide derived from the hydrophobic motif of S6K1. The binding of the wild type (wt) PDK1 and indicated mutants to a phosphopeptide comprising the hydrophobic motif of S6K1 (S6K-pHM: […]*YVAPSV, where T* indicates phospho-threonine, SEQ ID NO:104) was analysed by surface plasmon resonance as described in the Materials and Methods.
A. The sensor chip SA was coated with 12RUs of the biotinylated S6K-pHM peptide and the binding was analysed following injection of 270 nM wild type PDK1, PDK1 [T148A] and PDK1 [K76A]. […] (data not shown).
B. As in A. except that binding was analysed over a range of PDK1 concentrations (2-2150 nM). The response level at the steady state binding is plotted versus the log of the PDK1 concentration. The estimated Kd was obtained by fitting the data to a sigmoid curve using Kaleidagraph software.
Binding was analysed in a BiaCore 3000 system (BiaCore AB, Stevenage, UK). Biotinylated S6K-pHM (Biotin-C12-[…](P)YVAPSV) (SEQ ID NO:104) or the non-phosphorylated form of this peptide S6K-HM was bound to an streptavidin-coated Sensor chip (SA) (12 response units, RU). […] Steady state binding was determined at each concentration. Dissociation of PDK1 from the phospho-peptide was monitored over a 1 min period. […]

Structure (SMILES): CC(C)C[C@H](NC(=O)[C@H](Cc1ccccc1)NC(=O)[C@@H](NC(=O)[C@H](CCC(N)=O)NC(=O)[C@H](CC(N)=O)NC(=O)[C@H](C)NC(=O)[C@H](CO)NC(=O)[C@H](CCC(=O)O)NC(=O)[C@@H](N)CO)C(C)C)C(=O)NCC(=O)N[C@@H](Cc1ccccc1)C(=O)N[C@H](C(=O)N[C@@H](Cc1ccc(O)cc1)C(=O)N[C@H](C(=O)N[C@@H](C)C(=O)N1CCC[C@H]1C(=O)N[C@@H](CO)C(=O)N[C@H](C(=O)O)C(C)C)C(C)C)[C@@H](C)OP(=O)(O)O [S6K-pHM] (H-SESANQVFLGF[pT]YVAPSV-OH; N-terminus and C-terminus assumed)
- higher concentration required to half maximally activate PDK1[K76A] than wild type (PDK1[K76A]): approximately 3 fold
- dissociation of PDK1[T148A] from peptide compared with wild type PDK1 or PDK1[K76A] (PDK1[T148A]; BiaCore, 270 nM PDK1): markedly slower
- higher affinity of PDK1[T148A] than wild type PDK1 (PDK1[T148A]; relative to wild type PDK1): about 10 fold
